Test results as given in patent US7511029B2, “Pesticidal diazene oxide carboxylates” (Chemtura Corporation, priority 2007, dated 2009).

Key:
Tetranychus urticae Koch [1] = assay: Mite adulticide (MI) test; format: in vivo; conditions: adult mites on cowpea leaves sprayed to run off with 1000 ppm solution; mites transferred one day after treatment, examined five days later
Protocol: (§1) The remaining examples relate to the pesticidal use of compounds of this invention. In all these examples a stock solution for the compounds was prepared at 3000 ppm by dissolving 0.3 grams of the compound to be tested in 10 mL of acetone and adding 90 mL of distilled water plus four drops of ethoxylated sorbitan monolaurate, or a similar suitable wetting agent. For each example that follows, this stock solution was used and the specified dilutions made. All the tests discussed below, which involved treatment with compounds of this invention, were always repeated with controls, in which the active compound was not provided, to permit a comparison upon which the percent control was calculated. One day before treatment, a “figure 8” configuration of tree tanglefoot was applied to each of two cowpea primary leaves, one from each of two plants in a pot. In each Figure, the circle nearer the stem was designated for the mite ovicide/larvicide test and the circle further from the stem was designated for the mite adulticide test. Groups of adult mites (Tetranychus urticae Koch) were transferred into ovicide circles one day before treatment and the females were allowed to deposit eggs until one hour before treatment when they were removed. Plants were sprayed to run off with a 1000 ppm solution diluted from the 3000 ppm stock solution. […]

Tetranychus urticae Koch [2] = assay: Mite ovicide/larvicide (MIOVL) test; format: in vivo; conditions: eggs/immature mites on cowpea leaves sprayed with 1000 ppm solution; examined nine days following treatment; effect larvicidal (L)
Protocol: as §1

## COc1ccc(-c2ccccc2)cc1[N+]([O-])=NC(=O)OC(C)C [Compound 1, 1-Methylethyl 2-(4-methoxy-[1,1′-biphenyl]-3-yl)diazenecarboxylate 2-oxide]
Tetranychus urticae Koch [1]
  MI percent control: 100 % Control
Tetranychus urticae Koch [2]
  MIOVL (L) percent control: 100 % Control
other
  melting point: 102 to 106 °C
